Measured values published in the Deep4Chem optical property database.
Where “and” joins values, the source holds several entries; their conditions need not be identical. Identical values can stand only once. One block for each compound: values may come before it.

Assay: solvent given as SMILES

- absorption maximum (in CC#N): 332.4 nm
- absorption maximum (in CCCCO): 333.3 nm
- absorption maximum (in CCO): 332.2 nm
- absorption maximum (in CO): 332.4 nm
- absorption maximum (in ClCCl): 333.6 nm
- absorption maximum (in O): 331.2 nm
SMILES: COc1ccc2cc([C@H](C)C(=O)O)ccc2c1

- absorption maximum (in CO): 528 nm
SMILES: CCOC(=O)CCCCCn1c2ccccc2c(=O)c2cc3c(cc21)c(=O)c1ccccc1n3CC

- absorption maximum (in C1CCCCC1): 271.81 nm
SMILES: COc1ccc(-c2ccc(OC)cc2)cc1

- absorption maximum (in CS(C)=O): 481 nm
- absorption maximum (in ClCCl): 476 nm
SMILES: CCN(CC)c1ccc2c(c1)oc(=O)c1c(=O)oc3cc(C#Cc4ccc(C#N)cc4)ccc3c12

- absorption maximum (in ClC(Cl)Cl): 430 nm
SMILES: CN1CCc2cc(C3=Cc4cccc[n+]4[B-](F)(F)O3)ccc21

- absorption maximum (in C1CCCCC1): 388 nm
SMILES: CCCCCCCCOc1ccc2c3c(c4ccc(OCCCCCCCC)cc4c2c1)C(C)(C)c1ccccc1-3

- absorption maximum (in CO): 635 nm
- absorption maximum (in ClC(Cl)Cl): 641 nm
- absorption maximum (in ClCCl): 641 nm
SMILES: CN1C(=CC2=C([O-])C(=CC3=[N+](C)c4ccc(Cl)cc4C3(C)C)C2=O)C(C)(C)c2cc(Cl)ccc21

- absorption maximum (in CCO): 442 nm
SMILES: CCN(CC)c1cc2oc(=O)cc(C)c2cc1C

- absorption maximum (in ClC(Cl)Cl): 341 nm
SMILES: CCCCCCCCC1(CCCCCCCC)c2cc(-c3ccc(C#N)cc3)ccc2-c2ccc(-c3ccc(C#N)cc3)cc21

- absorption maximum (in CCO): 331 nm
- absorption maximum (in CCOC(C)=O): 331 nm
- absorption maximum (in CN(C)C=O): 333 nm
- absorption maximum (in CO): 330 nm
- absorption maximum (in ClC(Cl)Cl): 334 nm
SMILES: COc1ccc2cc(-c3ccc(S(C)(=O)=O)cc3)oc(=O)c2c1

- absorption maximum (in ClCCl): 394 nm
SMILES: CC(C)(C)c1ccc(-c2cc(-c3ccc(-c4cc(-c5ccc(C(C)(C)C)cc5)c(C(=O)NCc5cccs5)s4)s3)sc2C(=O)NCc2cccs2)cc1

- absorption maximum (in C1CCCCC1): 487 nm
- absorption maximum (in CC1CCCCC1): 487.5 nm
- absorption maximum (in CC#N): 502 nm
- absorption maximum (in CCC(C)CC): 487 nm
- absorption maximum (in CCCCCC): 487.5 nm
- absorption maximum (in CCOC(C)=O): 498 nm
SMILES: CN(C)c1cccc2c1C(=O)c1ccccc1C2=O

- absorption maximum (in CC1CCCO1): 469 nm
SMILES: O=c1cc2cc(O)c3cccc4ccc(o1)c2c43

- absorption maximum (in CCO): 612 nm
- absorption maximum (in ClCCl): 619 nm
- absorption maximum (in O): 604 nm
SMILES: CC[N+](CC)=c1ccc2cc3c(oc-2c1)-c1ccc(N(C)C)cc1CC3

- absorption maximum (in ClCCl): 364 nm
SMILES: CC(C)c1cccc(C(C)C)c1N1C(=O)c2cccc3c(Oc4ccccc4)ccc(c23)C1=O

- absorption maximum (in ClC(Cl)Cl): 673 nm and 672 nm
SMILES: COc1ccc(-c2cc3c(o2)=CC2=Cc4cc5oc(-c6ccc(OC)cc6)cc5n4[B-](F)(F)[N+]=32)cc1

- absorption maximum (in ClC(Cl)Cl): 323.56 nm
SMILES: Fc1ccc(-c2cc3c4c(c2)CCc2cc(-c5ccc(F)cc5)cc(c2-4)CC3)cc1

- absorption maximum (in CS(C)=O): 411 nm
SMILES: Brc1ccc2cc3c4ccccc4nc(-c4ccco4)c3n2c1

- absorption maximum (in CCO): 590 nm
- absorption maximum (in O): 580 nm
SMILES: CC/[NH+]=c1\cc2oc3cc(NCCC(=O)NC(C(=O)OC)C(C)C)c4ccccc4c3nc-2cc1C (stereo unspecified)

- absorption maximum (in C1CCCCC1): 308 nm
SMILES: CC(C)(C)c1ccc2c(c1)Cc1cc(C(C)(C)C)ccc1-2

- absorption maximum (in C1CCCCC1): 332 nm
SMILES: CCC(C)(C)c1ccc2c(c1)C(CC)(CC)c1cc(-c3ccc(-c4ccc5c(c4)C(CC)(CC)c4cc(C(C)(C)CC)ccc4-5)cc3)ccc1-2

- absorption maximum (in CC#N): 336 nm
- absorption maximum (in CCCCOCCCC): 336 nm
- absorption maximum (in CO): 334 nm
SMILES: COc1nc(Nc2cc3ccc4cccc5ccc(c2)c3c45)nc(OC)n1

Further lines, the compound ahead of its results:

SMILES: CC1(C)c2ccccc2N(c2ccc3c(c2)c2cc(N4c5ccccc5C(C)(C)c5ccccc54)ccc2c2nc4ccccc4nc32)c2ccccc21
- absorption maximum (in Cc1ccccc1): 380 nm

SMILES: Cc1cc(C)c(B(c2ccccc2N(c2ccccc2)c2ccccc2)c2c(C)cc(C)cc2C)c(C)c1
- absorption maximum (in Cc1ccccc1): 415 nm

SMILES: Cc1ccc(C2=C3C=CC(Oc4ccccc4)=[N+]3[B-](F)(F)n3c(Oc4ccccc4)ccc32)cc1
- absorption maximum (in C1CCOC1): 516 nm

SMILES: CC1=C(c2ccc(N(c3ccccc3)c3ccccc3)cc2)C(C)=[N+]2C1=C(c1c(-c3ccccn3)nc3ccccn13)c1c(C)c(-c3ccc(N(c4ccccc4)c4ccccc4)cc3)c(C)n1[B-]2(F)F
- absorption maximum (in ClCCl): 568 nm

SMILES: c1ccc(C2=C(c3ccccn3)[Si](c3ccccc3)(c3ccccc3)c3ccccc32)cc1
- absorption maximum (in ClCCl): 339 nm

SMILES: c1cc2ccc3[se]c4ccc5cccc6c(c1)c2c3c4c56
- absorption maximum (in ClC(Cl)Cl): 416.5 nm

SMILES: CCC1(CC)c2ccccc2-c2ccc(C#Cc3ccc4ccc5cccc6ccc3c4c56)cc21
- absorption maximum (in C1CCCCC1): 401 nm
- absorption maximum (in C1CCOC1): 402 nm
- absorption maximum (in CC#N): 399 nm
- absorption maximum (in CCOC(C)=O): 400 nm
- absorption maximum (in CN(C)C=O): 404 nm
- absorption maximum (in Cc1ccccc1): 405 nm
- absorption maximum (in ClC(Cl)Cl): 404 nm
- absorption maximum (in ClCCl): 403 nm

SMILES: O=S1(=O)c2ccc(-c3ccc(-n4c5ccccc5c5ccccc54)cc3)cc2C2(c3ccccc3-c3ccccc32)c2cc(-c3ccc(-n4c5ccccc5c5ccccc54)cc3)ccc21
- absorption maximum (in ClCCl): 341 nm

SMILES: CCCCCCOc1cc(C=C2C(=O)c3ccccc3C2=O)c(OCCCCCC)cc1C=C1C(=O)c2ccccc2C1=O
- absorption maximum (in ClCCl): 512 nm

SMILES: COc1ccc2c(c1)[nH]c1c3[nH]c4cc(OC)ccc4c3c3nsnc3c21
- absorption maximum (in CN(C)C=O): 436 nm
- absorption maximum (in Cc1ccccc1): 425 nm
- absorption maximum (in ClCCl): 430 nm

SMILES: Cc1ccc(-n2c3ccccc3c3cc(-c4ccc5[n+](c4)[B-](F)(F)n4c-5nc5c6ccccc6c6ccccc6c54)ccc32)cc1
- absorption maximum (in ClC(Cl)Cl): 444 nm

SMILES: COc1ccc2c3c([nH]c2c1)C(C)=NCC3
- absorption maximum (in CC#N): 328 nm
- absorption maximum (in CS(C)=O): 330 nm
- absorption maximum (in O): 372 nm

SMILES: Fc1cccc(F)c1[B-]1(c2c(F)cccc2F)Oc2c(ccc3c4c(ccc23)C=[N+](c2ccccc2)[B-](c2c(F)cccc2F)(c2c(F)cccc2F)O4)C=[N+]1c1ccccc1
- absorption maximum (in Cc1ccccc1): 538 nm
- absorption maximum (in ClCCl): 534 nm

SMILES: O=C1c2cc3ccccc3cc2C2=Nc3ccc4ccccc4[n+]3[B-](F)(F)N12
- absorption maximum (in ClCCl): 419 nm

SMILES: O=C1/C(=C\c2ccc(N(c3ccccc3)c3ccccc3)cc2)S(=O)(=O)c2ccccc21
- absorption maximum (in C1CCOC1): 473 nm
- absorption maximum (in C1COCCO1): 475 nm
- absorption maximum (in CC#N): 475 nm
- absorption maximum (in CC(C)=O): 472 nm
- absorption maximum (in CCOC(C)=O): 471 nm
- absorption maximum (in CN(C)C=O): 478 nm
- absorption maximum (in CO): 477 nm
- absorption maximum (in CS(C)=O): 482 nm
- absorption maximum (in Cc1ccccc1): 485 nm
- absorption maximum (in ClC(Cl)Cl): 491 nm
- absorption maximum (in ClCCl): 485 nm

SMILES: C=C
- absorption maximum (in CCCCCCC): 162 nm

SMILES: CCCCN1\C(=C/C=C/C=C/C2=[N+](CCCC)c3ccc4cc(Br)ccc4c3C2(C)C)C(C)(C)c2c1ccc1cc(Br)ccc21
- absorption maximum (in C1CCOC1): 685 nm
- absorption maximum (in CC#N): 682 nm
- absorption maximum (in CC(C)=O): 685 nm
- absorption maximum (in CCO): 688 nm
- absorption maximum (in CN(C)C=O): 689 nm
- absorption maximum (in CO): 683 nm
- absorption maximum (in CS(C)=O): 692 nm
- absorption maximum (in ClCCl): 699 nm

SMILES: Cc1ccc(N(c2ccccc2)c2ccc3ccc4c(N(c5ccccc5)c5ccc(C)cc5)ccc5ccc2c3c54)cc1
- absorption maximum (in ClCCl): 428 nm

SMILES: CSc1cc(-c2cc3cc4c5c(c3oc2=O)CCCN5CCC4)oc(=O)c1C#N
- absorption maximum (in C1CCOC1): 532 nm
- absorption maximum (in CC#N): 537 nm
- absorption maximum (in CC(C)=O): 536 nm
- absorption maximum (in CCOC(C)=O): 527 nm
- absorption maximum (in CN(C)C=O): 545 nm
- absorption maximum (in CO): 537 nm
- absorption maximum (in CS(C)=O): 549 nm
- absorption maximum (in Cc1ccccc1): 527 nm
- absorption maximum (in ClC(Cl)Cl): 538 nm
- absorption maximum (in ClCCl): 541 nm

SMILES: CC1(C)c2ccccc2N(c2ccc(-c3nc4c(C#N)ccc(C#N)c4nc3-c3ccc(N4c5ccccc5C(C)(C)c5ccccc54)cc3)cc2)c2ccccc21
- absorption maximum (in Cc1ccccc1): 479 nm

SMILES: COC(=O)c1c(C(=O)OC)c2ccc(C)nn2c1C
- absorption maximum (in C1CCCCC1): 380.4 nm

SMILES: O=c1c2ccccc2c2nc3cc4c(C#C[Si](C5CCCCC5)(C5CCCCC5)C5CCCCC5)c5cc6nc7c8ccccc8c(=O)c8ccccc8c7nc6cc5c(C#C[Si](C5CCCCC5)(C5CCCCC5)C5CCCCC5)c4cc3nc2c2ccccc12
- absorption maximum (in ClCCl): 731 nm

SMILES: CN1C(=CC2=C([O-])C(=CC3=[N+](C)c4ccccc4C3(C)C)C2=C2C(=O)c3ccccc3C2=O)C(C)(C)c2ccccc21
- absorption maximum (in ClC(Cl)Cl): 675 nm

SMILES: CCCc1c(C(=O)c2ccc3c4c(cccc24)-c2cccc4c2C3CC=C4)c2ccc3cccc4c5cccc6ccc1c(c65)c2c34 (stereo unspecified)
- absorption maximum (in ClCCl): 468 nm

SMILES: CCOC(=O)CCCn1c(C(=O)OC)c(C)c2c(=O)n3c(cc21)C(CC)=C(C)C3=O
- absorption maximum (in C1CCCCC1): 396 nm
- absorption maximum (in CO): 397 nm
- absorption maximum (in CS(C)=O): 397 nm
- absorption maximum (in ClC(Cl)Cl): 398 nm
- absorption maximum (in c1ccccc1): 397 nm

SMILES: CN(C)c1ccc(C#Cc2cc3ccc4cc(C#Cc5ccc(N(C)C)cc5)cc5ccc(c2)c3c45)cc1
- absorption maximum (in Cc1ccccc1): 421 nm

SMILES: CN1C(=CC2=C([O-])C(=Cc3sc4ccccc4[n+]3C)C2=C(C#N)C#N)C(C)(C)c2ccccc21
- absorption maximum (in ClC(Cl)Cl): 691 nm

SMILES: N#Cc1ccc(N2c3c(sc4ccccc34)Sc3sc4ccccc4c32)cc1
- absorption maximum (in ClCCl): 309 nm

SMILES: F[B-]1(F)n2c(cc3c4ccccc4c4ccccc4c32)-c2ccc3ccccc3[n+]21
- absorption maximum (in ClCCl): 476 nm

SMILES: COc1cc(OC)cc(C2=C3C(C)=C(I)C(C)=[N+]3[B-](F)(F)n3c(/C=C/c4ccsc4)c(I)c(C)c32)c1
- absorption maximum (in C1CCOC1): 598 nm
- absorption maximum (in CS(C)=O): 604 nm
- absorption maximum (in ClCCl): 599 nm

SMILES: C(/C=C/Nc1cccc2ccccc12)=[NH+]c1cccc2ccccc12
- absorption maximum (in CS(C)=O): 391 nm

SMILES: c1ccc2c3c(ccc2c1)C1(c2cc(-c4ccc5ccc6cccc7ccc4c5c67)ccc2-c2ccc(-c4ccc5ccc6cccc7ccc4c5c67)cc21)c1ccc2ccccc2c1O3
- absorption maximum (in ClC(Cl)Cl): 365 nm

SMILES: CCN(CC)c1ccc2cc(-c3cc(SC)c(C#N)c(=O)o3)c(=O)oc2c1
- absorption maximum (in C1CCOC1): 512 nm
- absorption maximum (in CC#N): 514 nm
- absorption maximum (in CC(C)=O): 514 nm
- absorption maximum (in CCOC(C)=O): 509 nm
- absorption maximum (in CN(C)C=O): 521 nm
- absorption maximum (in CO): 514 nm
- absorption maximum (in CS(C)=O): 527 nm
- absorption maximum (in Cc1ccccc1): 509 nm
- absorption maximum (in ClC(Cl)Cl): 517 nm
- absorption maximum (in ClCCl): 520 nm

SMILES: CC1=c2c3c4cccc5cccc(c=3c(C)[n+]2[B-](F)(F)n2c(C)c3c(c21)-c1cccc2cccc-3c12)c54
- absorption maximum (in ClC(Cl)Cl): 657 nm
